Article PMC12650660, “Novel Synthetic Strategies Towards Analogues of Cadaside and Malacidin Antibiotic Peptides” (Biomolecules, 2025)

Key:
[1] = head-to-tail type lactamisation of side-chain-protected branched depsipeptide (Gly10 N-terminus of ester branch + C-terminal Pro9), HATU/DIPEA (pH ~10), microwave; details: the molecule shown is the open-chain precursor; 31-membered ring; DCM; 6.0 mM; 70.0 °C; 1.0 h
[2] = tail-to-side-chain lactamisation of side-chain-protected peptide (Dap2 beta-NH2 + C-terminal Pro), HATU/DIPEA, microwave; details: the molecule shown is the open-chain precursor; 28-membered ring; DCM; 6.0 mM; 70.0 °C; 1.0 h
[3] = parameters: key: “+” indicates binding confirmed; “-” indicates no binding; “~” indicates potential binding with absence of precursor band; details: Table S2; ref SI [7], [9], [10]; cited from earlier work
From the text: page 11: Table S2: Summary of the ability of CDAs to bind cell wall synthesis precursors, as well as tendency to induce membrane depolarisation. “+” indicates binding, “-” indicates no binding, “n.d.” indicates binding has not been determined. * indicates binding occurs in the presence of phosphatidylglycerol. Peptide C -P C-PP Lipid I Lipid II Membrane 55 55 Depolarisation Daptomycin [1]–[4] + * + * n.d. + * + A54145 [5] n.d. n.d. n.d. n.d. + Tsushimycin [4] + n.d. n.d. n.d. n.d. Laspartomycin [6] + n.d. n.d. n.d. - Friulimicin [7] + - - - - Taromycin n.d. n.d. n.d. n.d. n.d. Amphomycin [9], ...

`CCCCCCCCCC(=O)NC[C@@H](C)C(=O)NCC(=O)N[C@H](CCC(=O)OC(C)(C)C)C(=O)N[C@@H](Cc1ccc(OC(C)(C)C)cc1)C(=O)N[C@H](C(=O)N[C@@H](C(=O)N[C@@H](CC(=O)OC(C)(C)C)C(=O)N[C@@H](CC(=O)OC(C)(C)C)C(=O)N1CCC[C@H]1C(=O)O)[C@H](C)CC)[C@@H](C)OC(=O)CN(C)C(=O)[C@H](CC(=O)OC(C)(C)C)NC(=O)CNC(=O)[C@H](CC(=O)OC(C)(C)C)NC(=O)CN` showed a ring closure, overall yield [1] of 0.3%.
In the case of `CCCCCCCCCC(=O)NC[C@@H](C)C(=O)NCC(=O)N[C@H](CCC(=O)OC(C)(C)C)C(=O)N[C@@H](Cc1ccc(OC(C)(C)C)cc1)C(=O)N[C@H](C(=O)N[C@@H](C(=O)N[C@@H](CC(=O)OC(C)(C)C)C(=O)N[C@@H](CC(=O)OC(C)(C)C)C(=O)N1CCC[C@H]1C(=O)O)[C@H](C)CC)[C@@H](C)OC(=O)CN(C)C(=O)[C@H](CCC(=O)OC(C)(C)C)NC(=O)CNC(=O)[C@@H](CCC(=O)OC(C)(C)C)NC(=O)CN`, the ring closure, overall yield [1] is reported as 0.3%.
`CCCCCCCCCC(=O)N[C@@H](CC(=O)OC(C)(C)C)C(=O)N[C@@H](CN)C(=O)N[C@@H](C(=O)N[C@@H](CCCCNC(=O)OC(C)(C)C)C(=O)N[C@@H](CC(=O)OC(C)(C)C)C(=O)N[C@@H](CC(=O)OC(C)(C)C)C(=O)N(CC(=O)N[C@H](CC(=O)OC(C)(C)C)C(=O)N[C@H](C(=O)N1CCC[C@H]1C(=O)O)C(C)C)Cc1ccc(OC)cc1OC)C(C)C` gave a ring closure, overall yield [2] of 1.3%.
In the case of Amphomycin, the “Lipid I binding (reported)” value [3] is listed as “-”.
For Friulimicin, the “Lipid I binding (reported)” value [3] is given as “-”.
